Among the test systems are RXF-631 renal; SNB-78 CNS; DU-145 prostate; T-47D breast; 786-0 renal; P388 leukemia; P388/ADR leukemia; SN12K1 renal.
Assay in all cases: NCI tumour cell line growth inhibition, 48 h

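1) Cells in 96-well plates. 2) Compound, 48 h, 5 concentrations. 3) Linear interpolation between surrounding doses. 4) Unreached endpoint = highest concentration. GI50 marks 50% less growth. The concentration for full growth arrest is given as TGI.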

Turning to `CS(=O)(=O)OCc1c(O)c2c(c(O)c1COS(C)(=O)=O)C(=O)C=CC2=O`, the TGI with RXF-631 renal and in the assay with SNB-78 CNS was above 100 µM throughout.
For `Cc1ccc(S(=O)(=O)NCCSS(=O)(=O)c2ccc(C)cc2)cc1`, the TGI in the assay on DU-145 prostate was above 100 µM; in the assay on T-47D breast, 53.9 µM.
In the assay with SNB-78 CNS, `O=C(/N=C/c1c(O)c2ccccc2oc1=O)NC1CCCCC1` displayed a TGI above 100 µM.
The compound `CC(C)Cc1cccc(C(C)C)c1NC(=O)CCC(=O)N/N=C1\C(=N/NC(=O)CCC(=O)Nc2c(C(C)C)cccc2C(C)C)C(c2ccc3c(c2)OCO3)Oc2ccccc21` (stereo not given) yielded a TGI with SNB-78 CNS above 100 µM.
`CN(C)CCC(C(=O)C(C)(C)C)c1ccccn1` (stereo not given): the TGI with 786-0 renal, with DU-145 prostate and with T-47D breast was above 100 µM throughout.
`O=c1cc(-c2nc3ccccc3[nH]2)[nH]c2nc(-c3nc4ccccc4[nH]3)cc(-c3ccc(Cl)cc3)c12`: the values for the TGI with DU-145 prostate and with T-47D breast were above 100 µM and 83.5 µM, respectively.
As for `ClCC1(CCl)COC1`, the TGI with DU-145 prostate and with T-47D breast was above 100 µM each time.
Consider `COc1ccc(-n2cc(-c3ccc(OC)c(OC)c3)nc2SCc2ccccc2)cc1Cl`, for which, in the assay with DU-145 prostate, the GI50 was 27.6 µM and the TGI is above 100 µM. In the assay with T-47D breast, the GI50 was 9.45 µM and the TGI was above 100 µM.
Take `FC(F)(F)C1=NC(=NNc2nnc(-c3ccccc3)c(-c3ccccc3)n2)N=C(C(F)(F)F)C1`: the TGI was above 47.5 µM in the assay on P388 leukemia, above 100 µM with P388/ADR leukemia, above 100 µM with SN12K1 renal and above 100 µM in the assay on SNB-78 CNS.
For the compound `C=C1C(=O)OC2/C=C(\C)CC(O)/C=C(/CO)CC(OC(=O)/C(C)=C/C)C12` (stereo not given), the TGI in the assay with P388 leukemia came out at 113 µM; in the assay with P388/ADR leukemia, 240 µM; in the assay on SN12K1 renal, 76.6 µM; in the assay on SNB-78 CNS, 319 µM.

Values taken from PubChem BioAssay (NCI).
